Several values for one entry are separate records, joined by “and”; a condition that tells them apart may be missing. Identical values can stand only once.
Experiments:
[1] = biological target: T1, Igf2bp1 (Homo sapiens, UniProt Q9NZI8); experiment: Fluorescence polarization (FP) assay of Igf2bp1 binding to fluorescent Kras 6 RNA; conditions: FP dose response; read-out: IC50, inhibition of Igf2bp1 binding to Kras 6 RNA
T1 construct: Recombinant full-length Igf2bp1 protein was labelled with RED-tris-NTA dye; made in house
Method: For the small-molecule screen, compounds were obtained from the collection maintained at the Grand Israel National Center for Personalized Medicine, consisting of molecules purchased from commercial vendors. Labelled RNA (10 nM) was incubated with recombinant Igf2bp1 protein (400 nM) in FAM-RNA buffer (10 mM Tris pH 8.0, 75 mM KCl, 0.5 mM EDTA, 1 mM DTT, 0.0188 U/μL RNAsin, 0.0005 μg/mL heparin, 0.0001 μg/μL tRNA, 0.01% Triton X-100, 3 mM MgCl2, 0.05% IGEPAL) at room temperature for 15 min. 7 μL of this reaction mix was aliquoted with GNF WDII (USA) into wells of 1536 well plates, with a final concentration of 20 μM compound or DMSO. The plates were spun down and read in a BMG Pherastar FS (Germany) plate reader, in FP mode with a 485/520/520 polarization filter, calibrated to 35 mP for free fluorescein with similar total intensity as experimental samples. […]
To determine the quality of our screening assay, the Z’ factor for each plate was calculated with a Z’ factor greater than 0.5 indicating a robust assay suitable for high throughput screening. Compounds that altered the overall fluorescence intensity compared to controls were considered auto florescence and excluded from further analysis. […] Any small molecule that causes a change of more than three standard deviations from the mean is determined appropriate for further investigation.

[2] = biological target: T2, Igf2bp2 (Homo sapiens, UniProt Q9Y6M1); experiment: MST, Igf2bp2; type: binding
T2 construct: made in house

[3] = biological target: T3, Igf2bp3 (Homo sapiens, UniProt O00425); experiment: MST, Igf2bp3; conditions: IGF2BP3 50nM, read-out: KD of binding to Igf2bp3
T3 construct: made in house

[4] = tested on: ES2 cells; experiment: qPCR of Igf2bp1 target RNAs in ES2 cells; type: cell-based, human
Method: Cells were grown for 12 hours in 12 well plates prior to incubation with the compound at different concentrations for an additional 12 or 24 hours. Total RNA was then extracted using EZ-RNA total RNA isolation kit (Biological Industries) and cDNA prepared from the RNA using the First Strand cDNA Synthesis kit (Quanta bio). Real time PCR was performed with Fast SYBR Green Master Mix (Thermo Fisher Scientific), and cDNA expression analysed with the Bio-Rad CFX Manager 3.1.

[5] = tested on: Kras protein in H1299 cells; experiment: Western blot of Kras protein in H1299 cells; type: cell-based, human; conditions: H1299, 10 and 20 μM 7773, 48 hours
Method: Western blots were performed as described. For fluorescent westerns, cell lysates were prepared with phosphatase inhibitors (β-Glycerophosphate and Sodium orthovanadate) and a protease inhibitor (cOmplete™, Mini Protease Inhibitor Cocktail, Roche 04693124001), membranes were read using a Li-Core Odyssey laser scanner, and results analysed using Image Studio Lite software.
The following primary antibodies were used: mouse anti-total ERK (p44/42 MAPK (Erk1/2) L34 F12 Cell Signalling 4696s), mouse anti-Kras (CPTC-KRAS4B-2, DSHB) rabbit anti-dpERK, (p44/42 MAPK, Cell Signalling 4370), rabbit anti-alpha/beta tubulin (Cell Signalling 2148), goat anti-rabbit IgG-HRP (Jackson), goat anti-mouse IgG-HRP (Jackson). Secondary antibodies for fluorescent westerns: donkey anti-mouse 800 (Rockland 610–732-124), goat anti-rabbit 680 (Molecular Probes A21076).

[6] = tested on: H1299 cells; experiment: Wound healing (cell migration) assay, H1299; type: cell-based, human
Method: (§1) Cells were seeded in 96 IncuCyte® ImageLock plates (20X10^3 cells per well) for 24 hours, to a near confluency of 95%, before the addition of increasing concentrations of compound. After a further 24 hours, wells were scratched using the IncuCyte® 96-well WoundMaker Tool, and the cells cultured for an additional 48 hours using the IncuCyte® S3 Live-Cell Analysis System (Essen BioScience). The plate was imaged at increments of 120 minutes for a period of 48 hours, and then analysed for relative wound healing.

[7] = tested on: ES2 cells; experiment: Wound healing (cell migration) assay, ES2; type: cell-based, human
Method: as §1

[8] = tested on: HEK293 cells; experiment: Wound healing (cell migration) assay, HEK293; type: cell-based, human
Method: as §1

[9] = tested on: ES2 cells; experiment: Cell proliferation assay (Incucyte), ES2; type: cell-based, human; conditions: ES2, up to 20 μM
Method: ES2, H1299 and HEK293 cells were seeded in a 96 well plate (5X10^3 cells per well) for 24 hours before adding the compound at increasing concentrations. After an additional 24 hours, the plate was incubated in an IncuCyte® S3 Live-Cell Analysis System (Essen BioScience). The wells were filmed for 72 hours, and then analysed for proliferation rate Using IncuCyte® S3 Live-Cell Analysis System (Essen BioScience)

[10] = tested on: H1299 cells; experiment: Growth in soft agar, H1299; type: cell-based, human; conditions: H1299, 20 μM 7773
Method: Cells were grown for 12 hours in 6 well plates prior to incubation with the compound or DMSO for an additional 48 hours, 2000 cells were suspended in 0.3% agar-complete medium and then seeded in triplicates onto a 0.6% agar-complete medium base in a 6 well plate. After one week, the colonies were fed with 0.3% agar-complete medium, and after 2 additional weeks, imaged and quantified.

T1 sequence (Q9NZI8 whole entry): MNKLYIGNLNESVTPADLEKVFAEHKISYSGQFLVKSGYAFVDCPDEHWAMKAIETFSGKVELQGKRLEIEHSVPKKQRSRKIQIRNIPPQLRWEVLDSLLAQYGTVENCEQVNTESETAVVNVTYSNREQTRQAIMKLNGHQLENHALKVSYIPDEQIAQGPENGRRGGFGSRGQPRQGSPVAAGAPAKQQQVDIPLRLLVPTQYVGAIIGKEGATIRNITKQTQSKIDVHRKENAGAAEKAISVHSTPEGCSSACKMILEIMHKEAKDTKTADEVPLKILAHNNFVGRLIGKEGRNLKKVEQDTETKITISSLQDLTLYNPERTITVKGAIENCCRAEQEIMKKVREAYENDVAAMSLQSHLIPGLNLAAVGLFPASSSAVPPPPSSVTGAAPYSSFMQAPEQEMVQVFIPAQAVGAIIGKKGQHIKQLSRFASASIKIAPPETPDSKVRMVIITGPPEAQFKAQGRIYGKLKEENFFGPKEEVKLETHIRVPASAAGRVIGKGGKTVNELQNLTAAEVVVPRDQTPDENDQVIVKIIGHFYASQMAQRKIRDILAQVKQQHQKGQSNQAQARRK
T2 sequence (Q9Y6M1 whole entry, species assumed): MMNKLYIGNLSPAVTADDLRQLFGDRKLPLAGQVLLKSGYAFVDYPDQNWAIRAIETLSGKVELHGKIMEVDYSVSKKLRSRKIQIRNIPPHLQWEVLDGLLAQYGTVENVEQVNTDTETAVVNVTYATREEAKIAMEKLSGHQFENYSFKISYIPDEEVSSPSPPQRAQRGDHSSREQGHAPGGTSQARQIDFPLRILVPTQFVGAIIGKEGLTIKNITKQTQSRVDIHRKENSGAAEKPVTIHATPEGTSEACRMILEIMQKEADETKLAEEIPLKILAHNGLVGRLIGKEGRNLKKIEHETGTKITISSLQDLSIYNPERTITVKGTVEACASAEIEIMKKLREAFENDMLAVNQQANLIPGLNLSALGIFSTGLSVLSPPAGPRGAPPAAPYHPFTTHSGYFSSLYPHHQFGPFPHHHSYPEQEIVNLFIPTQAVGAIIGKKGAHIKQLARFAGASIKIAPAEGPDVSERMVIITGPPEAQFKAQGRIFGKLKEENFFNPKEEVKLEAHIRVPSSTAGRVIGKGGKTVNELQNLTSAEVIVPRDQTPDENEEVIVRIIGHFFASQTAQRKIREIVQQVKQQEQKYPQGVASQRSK
T3 sequence (O00425 whole entry, species assumed): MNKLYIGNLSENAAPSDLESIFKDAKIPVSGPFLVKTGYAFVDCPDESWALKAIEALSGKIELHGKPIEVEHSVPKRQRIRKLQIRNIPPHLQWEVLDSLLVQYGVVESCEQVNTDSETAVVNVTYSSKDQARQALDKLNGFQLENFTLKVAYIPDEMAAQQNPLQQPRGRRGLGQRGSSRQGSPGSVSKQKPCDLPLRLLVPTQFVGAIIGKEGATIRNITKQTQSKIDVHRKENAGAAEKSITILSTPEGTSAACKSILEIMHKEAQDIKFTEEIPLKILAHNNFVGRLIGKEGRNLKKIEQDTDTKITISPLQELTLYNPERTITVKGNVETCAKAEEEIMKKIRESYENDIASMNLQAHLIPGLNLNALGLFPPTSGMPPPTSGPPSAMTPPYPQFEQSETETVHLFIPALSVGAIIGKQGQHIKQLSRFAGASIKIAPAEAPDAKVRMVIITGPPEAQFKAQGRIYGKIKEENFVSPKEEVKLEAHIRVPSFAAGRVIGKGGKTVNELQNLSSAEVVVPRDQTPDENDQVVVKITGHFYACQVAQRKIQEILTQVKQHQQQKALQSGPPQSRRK

Question: How did the IC50 [1] turn out when `O=C(c1ccc(Cn2cnnn2)cc1)N1CCCC(Nc2ccc3c(c2)OCO3)C1` (centres unmarked) [compound 7773] was run?
Answer: Its IC50 is ~30 µM and 30.4 µM.

Question: And the Kd ([2]; IGF2BP2 50nM, read-out: KD of binding to Igf2bp2)?
Answer: Its Kd is > 150 µM.

Question: And the “Binding to Igf2bp2” value ([2]; even at concentrations that almost saturate binding to Igf2bp1)?
Answer: Its value is “did not significantly bind”.

Question: And the Kd [3]?
Answer: Its Kd is 52 µM.

Question: What about the “Steady state level of CD44 RNA” value ([4]; ES2, 20 μM 7773, 12 and 24 hours) of the same molecule?
Answer: The value was “strongly reduced after 12 hours, but appeared to recover after 24 hours”.

Question: What about the “Steady state levels of CD44, Kras, cMyc and SRF RNA” value ([4]; ES2, 20 μM 7773, 12 hours) of the same molecule?
Answer: The value was “all of the assayed RNAs were reduced”.

Question: And the “Steady state levels of CD44, Kras, cMyc and SRF RNA” value ([4]; ES2, 20 μM 7773, 24 hours)?
Answer: The value was 3 of the 4 RNAs showing similar or even enhanced reduction.

Question: What about the “Levels of control RNAs that are not targets of Igf2bp1” value ([4]; ES2, 24 hours) of the same molecule?
Answer: Its value is “not significantly affected”.

Question: What about the Kras protein level [5] of the same molecule?
Answer: Its Kras protein level is “dose-dependent reduction”.

Question: What about the Wound healing ([6]; H1299, 20 μM) of the same molecule?
Answer: Its Wound healing is “strongly inhibited”.

Question: What about the Wound healing ([6]; H1299, lowest concentration 5 μM) of the same molecule?
Answer: The Wound healing was “discernible inhibition”.

Question: And the Wound healing ([7]; ES2, 20 μM)?
Answer: The Wound healing was “strongly inhibited”.

Question: What about the Wound healing ([7]; ES2, lowest concentration 5 μM) of the same molecule?
Answer: The Wound healing was “discernible inhibition”.

Question: What about the Wound healing ([8]; HEK293, 20 μM) of the same molecule?
Answer: Its Wound healing is “strongly inhibited”.

Question: And the Wound healing ([8]; HEK293, lowest concentration 5 μM)?
Answer: The Wound healing was “discernible inhibition”.

Question: What about the Cell proliferation [9] of the same molecule?
Answer: Its Cell proliferation is “remarkably unaffected”.

Question: What about the “Ability to form colonies in soft agar” value [10] of the same molecule?
Answer: Its value is “dramatically inhibited”.

Reference: publication PMC8794255, “Small molecule inhibitor of Igf2bp1 represses Kras and a pro-oncogenic phenotype in cancer cells” (RNA Biology, 2021)
